# Structures can show the parent of a compound that is named as a salt. Where two headings read alike, the source gives them in different places.
# Key:
# [1] = test system: HSV-1; assay: Anti-HSV-1 assay (XTT); type: cell-based, herpes simplex virus type 1; conditions: Human alphaherpesvirus 1; HSV-1 in Vero cells
# Description: Anti-Herpes Simplex Type 1 Virus (HSV-1).
# (§1) Determination of antiviral activity and cytotoxicity.
# [2] = test system: Vero cells; assay: XTT cytotoxicity, Vero cells; type: cell-based, African green monkey
# [3] = test system: Flu A; assay: Anti-influenza A assay (XTT); type: cell-based, influenza virus type A; conditions: Influenza A virus; Flu A in MDCK cells
# [4] = test system: Flu B; assay: Anti-influenza B assay (XTT); type: cell-based, influenza virus type B; conditions: Influenza B virus; Flu B in MDCK cells
# Description: Anti-Influenza Type A and B Virus (Flu A & B). […] The influenza A/PR/8/34 (VR-95) and influenza B/Allen/45 (VR-102) was obtained from ATCC and a stock virus pool was produced in MDCK cells.
# as §1
# [5] = test system: MDCK cells
# [6] = test system: CoV; assay: Anti-coronavirus assay (XTT); type: cell-based; conditions: MRC5; CoV in MRC-5 cells
# Description: as §1
# [7] = test system: Zika; assay: Anti-Zika virus assay (XTT); type: cell-based; conditions: Zika in Vero cells
# Description: Anti-Zika Virus (Zika). […] Monolayers were approximately 70% confluent for the assay. Zika virus strain MR766 was obtained from ATCC (VR-84) and a stock virus pool was produced in LLCMK2 cells.
# as §1
# [8] = test system: H1-HeLa cells; assay: XTT cytotoxicity, H1-HeLa cells; type: cell-based; conditions: HRV assay
# Description: (§2) Anti-Human Rhinovirus (HRV).
# as §1
# [9] = test system: MRC-5 cells; assay: XTT cytotoxicity, MRC-5 cells; type: cell-based; conditions: MRC-5, CoV assay
# Description: as §1
# [10] = test system: HeLa cells; assay: XTT cytotoxicity, HeLa cells; type: cell-based; conditions: AdV assay
# [11] = test system: AdV; assay: Anti-adenovirus assay (XTT); type: cell-based; conditions: unidentified adenovirus; AdV in HeLa cells
# Description: as §1
# [12] = test system: HRV; assay: Anti-human rhinovirus assay (XTT); type: cell-based; conditions: Human rhinovirus sp.; HRV in H1-HeLa cells
# Description: as §2, §1
# [13] = test system: HBV; assay: Anti-HBV evaluation (qPCR of HBV DNA); type: cell-based; conditions: Hepatitis B virus; HBV in AD38 cells
# Protocol: (§3) Anti-HBV evaluation. […] The test compound was serially diluted in the RPMI/FBS medium and added to the wells in triplicate (with six wells receiving medium alone as a virus only control). The plate was incubated for 6 days, with a change in medium (+/- compound) on Day 3. Supernatant (100 µL) was collected from each well for analysis of viral DNA by qPCR as described below and cytotoxicity was evaluated by XTT staining of the cell culture monolayer on the sixth day as described above.
# Quantitative PCR detection of HBV DNA. Cell culture supernatant (10 µL) was diluted in qPCR dilution buffer (40 µg/mL sheared salmon sperm DNA) and boiled for 15 min. Quantitative real time PCR was performed in […] using an Applied Biosystems 7900HT Sequence Detection System and the supporting SDS 2.4 software. Samples (5 µL boiled DNA) and DNA standards were subjected to real time qPCR using Platinum Quantitative PCR SuperMix-UDG (Invitrogen) and specific DNA oligonucleotide primers (IDT, Coralville, […]) HBV-AD38-qF1 (5’-[…] -3’), HBV-AD38-qR1 (5’-AGT CCA AGA GTY CTC TTA TRY AAG ACC TT-3’), and HBV-AD38-qP1 (5’-FAM-CCG TGT GCA/ZEN/[…] -3’BHQ1) at a final concentration of 0.2 µM for each primer in a total reaction volume of 15 µL. […]
# [14] = test system: AD38 cells; assay: XTT cytotoxicity, AD38 cells; type: cell-based; conditions: AD38, HBV assay
# Protocol: as §1, §3
# [15] = test system: CEM-SS cells; assay: XTT cytotoxicity, CEM-SS cells; type: cell-based; conditions: HIV-1 assay
# [16] = test system: HIV-1; assay: Anti-HIV-1 assay (XTT); type: cell-based, human immunodeficiency virus type 1; conditions: Human immunodeficiency virus 1; HIV-1 in CEM-SS cells
# Protocol: Anti-Human Immunodeficiency Virus (HIV-1). CEM-SS cells were obtained from the NIH AIDS Research and Reference Reagent Program (Manassas, VA), resuspended at 5x10^4 cells per mL and 50 µL added to the microtiter plate wells. The lymphocyte-tropic virus strain HIV-1RF (obtained from the NIH AIDS Research and Reference Reagent Program and grown in CEM-SS cells for stock virus pools) was used for the assay.
# as §1
# [17] = test system: granulocyte macrophage (GM) human bone marrow progenitor cells; assay: Bone marrow progenitor cell inhibition assay, GM; type: cell-based; conditions: 14 days
# [18] = test system: erythroid (E) human bone marrow progenitor cells; assay: Bone marrow progenitor cell inhibition assay, E; type: cell-based; conditions: 14 days
# Description: Bone marrow progenitor cell inhibition assays. […] The resulting number of colonies (greater than 30 cells) were compared to control wells to determine the extent of cytotoxicity.
smiles,measurement,setting,value
Nc1nc2c(ncn2COCCO)c(=O)[nH]1 [Acyclovir],EC50,[1],1760 nM
same,TC50,[2]; HSV-1 assay,>100000 nM
CCOC(=O)C1=C[C@@H](OC(CC)CC)[C@H](NC(C)=O)[C@@H](N)C1 [Oseltamivir],EC50,[3],160 nM
same,EC50,[4],420 nM
same,TC50,[5]; Flu A assay,>10000 nM
same,TC50,[5]; Flu B assay,>10000 nM
NC(=O)c1ncn([C@@H]2O[C@H](CO)[C@@H](O)[C@H]2O)n1 [Ribavirin],EC50,[6],3850 nM
same,EC50,[7],5650 nM
same,TC50,[8],40600 nM
same,TC50,[9],>100000 nM
same,TC50,[10],11700 nM
same,EC50,[11],760 nM
same,EC50,[12],17100 nM
same,TC50,[2]; Zika assay,38800 nM
"CC(C)OC(=O)OCOP(=O)(CO[C@H](C)Cn1cnc2c(N)ncnc21)OCOC(=O)OC(C)C [TDF, tenofovir disoproxil fumarate]",EC50,[13],230 nM
same,TC50,[14],>1000 nM
Cc1cn([C@H]2C[C@H](N=[N+]=[N-])[C@@H](CO)O2)c(=O)[nH]c1=O [Zidovudine],TC50,[15],>500 nM
same,EC50,[16],4 nM
same,TC50,[17],1000 nM
same,TC50,[18],2000 nM

# — publication PMC6949113, “Preclinical evaluation of AT-527, a novel guanosine nucleotide prodrug with potent, pan-genotypic activity against hepatitis C virus” (PLoS ONE, 2020)
